Results reported in US20100311726A1, “REDUCTION OF BETA-AMYLOID LEVELS BY TREATMENT WITH THE SMALL MOLECULE DIFFERENTIATION-INDUCING FACTOR” (priority 2007, published 2010).

Legend:
[1] = tested on: CHO cells stably expressing human wild type APP^751 (CHO-7W); test: Cell proliferation assay in APP-expressing CHO cells; type: cell-based, Chinese Hamster
Text: For proliferation assays, 1×10^4 cells were deposited into 24-well plates and treated with vehicle (ethanol or DMSO) or with various amounts of DIF-1 or DIF-3 for a period of 4 days. Cells were harvested after each day by trypsin/EDTA treatment, stained with an equal volume of 0.05% Trypan blue and enumerated in triplicate twice using a haemocytometer. Dead cells are stained blue, but live cells with intact cell membranes are not coloured. Data represents the mean cell number±the standard deviation for at least 3 separate experiments.
The levels of secreted Aβ from CHO-7W cells stably overexpressing APP^751 and CHO-CAB cells that overexpress APP^751 and human BACE1 was quantified by ELISA and viewed by western blot using the monoclonal anti-APP antibody (6E10) that recognizes residues 1-17 of Aβ. […] Since DIF-1 exerts a cytostatic effect, the cell number was counted for all treatments upon removal of the conditioned media and used to normalize the levels of Aβ. […] The concentration of Aβ40 and Aβ42 was subsequently detected in triplicate using the β-Amyloid 1-40 or 1-42 Colorimetric ELISA kit (Biosource International, Inc.) according to the manufacturer's instructions.
Cells seeded on a 6-well plate were incubated with various concentrations of DIF-1. Cells were harvested by the trypsin/EDTA treatment at the times indicated and counted with a haemocytometer. […]

cyclin D1 = test: Cyclin D1 level by western blot
Method: Following treatment of each cell line with or without DIF-1 (1-30 μM) and/or other inhibitors, cells were lysed in cold RIPA buffer (20 mM Tris-HCl (pH 7.4) buffer containing 150 mM NaCl, 2 mM EDTA, 1% Nonidet® P-40 (NP-40), 50 mM NaF, 1 mM Na3VO4, 1 mM Na2MoO4, 10 mg/ml aprotinin, and 10 mg/ml leupeptin), supplemented with protease inhibitor tablets from Roche (Switzerland). Protein amounts were quantified in triplicate using the BCA assay from Pierce. Equal amounts of protein extracts were fractionated by sodium dodecyl sulfate polyacrylamide gel electrophoresis (SDS-PAGE) and transferred to polyvinylidene difluoride membranes. The membranes were blocked for 1 hour with 5% fat-free powdered milk or 5% BSA, incubated overnight at 4° C. with primary antibodies (1:1000 or 1:5000), washed with TTBS and then incubated at room temperature with appropriate peroxidase-conjugated secondary antibodies (1:5000). Blots were repeatedly washed with TTBS and target proteins were detected using an enhanced chemiluminescence (ECL) system (Amersham Pharmacia Biotech, New Jersey, USA) and XOMAT™ Kodak® film.
Densitometry analysis of western blot data was performed on a PC computer using QuantityOne® software obtained from Bio-Rad® Laboratories, Inc. (California, USA). Loading variations between western blot lanes were normalized according to the GAPDH signal prior to any experimental quantification. Each western blot presented in the figures is representative of at least five independent experiments to ensure reproducibility of the results unless noted otherwise.
CHO-CAB cells were treated with lithium chloride (10mM). […] To ensure that the results observed were due to proteasome inhibition, we assessed the effects of lactacystin and ALLN on cyclin D1 levels. […] The data represents that of three separate experiments.

secreted APP and Aβ = test: Secreted APP and total Aβ in conditioned media by western blot; type: cell-based, human; details: CHO-7W, 30 μM, antibody 6E10
Method: (§1) The levels of secreted Aβ from CHO-7W cells stably overexpressing APP^751 and CHO-CAB cells that overexpress APP^751 and human BACE1 was quantified by ELISA and viewed by western blot using the monoclonal anti-APP antibody (6E10) that recognizes residues 1-17 of Aβ. Cells (5×10^5) were deposited into 6-well tissue culture dishes in triplicate and allowed to settle and grow for 24 hours. At this time, the media was aspirated and the cells were washed 2× in warm PBS. Fresh media (2 mL) and media supplemented with vehicle or DIF-1 was added to each well. […] Since DIF-1 exerts a cytostatic effect, the cell number was counted for all treatments upon removal of the conditioned media and used to normalize the levels of Aβ. […] The concentration of Aβ40 and Aβ42 was subsequently detected in triplicate using the β-Amyloid 1-40 or 1-42 Colorimetric ELISA kit (Biosource International, Inc.) according to the manufacturer's instructions.
(§2) We then looked at what effect this had on the levels of secreted soluble APP and Aβ production. […] The conditioned media was analyzed using anti-APP antibody 6E10 in order to detect total βP levels and sαAPP levels since it recognizes the amino acids 1-17 of Aβ and thus cannot detect sβAPP. […] The blots were analyzed using a phosphorimager.

CHO-7W cells = test: Flow cytometry cell cycle distribution, CHO-7W; type: cell-based, Chinese Hamster; details: 25 μM
Method: Naïve and CHO-7W cells were collected by trypsin/EDTA treatment and counted using a haemocytometer. The cells (1×10^5) were deposited into 10 cm tissue culture dishes containing fresh media and grown for 24 hours prior to DIF-1 treatment (25 μM). Cells were grown in the presence of DIF-1 for approximately 20 hours. Cells harvested by the trypsin/EDTA treatment were suspended in hypotonic fluorochrome solution containing 50 ug/ml of propidium iodide, 0.1% sodium citrate, and 0.1% Triton X-100. Cells (5×10^4) for each sample were analyzed for fluorescence using the Massachusetts General Hospital cytology core. Cell cycle distribution was compared between vehicle and DIF-1 treated nave CHO cells, and CHO-7W cells. The percentage of cells in G0/G1, S-phase and G2/M represents the mean cell number±the standard deviation from at least 3 separate experiments.
CHO/APP cells were incubated with DIF-1 (25 μM) for the indicated periods and then harvested, fixed and stained with propidium iodide (PI) and fluorescence of nuclei was measured. Histogram peaks are labeled by phases. The percentages of cell number in the cell cycle phases are shown as means+/−S.E. of three independent experiments performed in duplicate. The effects of DIF-1 on CHO-7W cell growth is also a result of G0/G1 cell cycle block (50.1%±1.1) as measured by flow cytometry (FIG. 2B).

Aβ40 = test: Secreted Aβ40 sandwich ELISA of conditioned media; type: cell-based, human
Method: as §1
as §2, with “phosphorimager. […]” for “phosphorimager.”

Question: How did the “total cell number of vehicle treated cells higher than DIF-1 treated cells” value ([1]; 25 μM, after 20 hours, CHO-7W and CHO-CAB) turn out when CCCCCC(=O)c1c(O)c(Cl)c(OC)c(Cl)c1O [DIF-1, 1-[3,5-dichloro-2,6-dihydroxy-4-methoxyphenyl]-1-hexanone] was run?
Answer: Its value is roughly 10%.

Question: What about the “antiproliferative effect in CHO-7W compared to naïve cells (value in brackets, quantity not named)” value ([1]; CHO-7W) of the same compound?
Answer: The value was 30.6%±1.3.

Question: And the “reduction of cyclin D1 level” value (cyclin D1; 30 μM, 18-20 hours, CHO-CAB cells and mouse embryonic fibroblasts)?
Answer: Its value is roughly 82.56±0.74%.

Question: And the “effect on cyclin D1 level” value (cyclin D1; CHO-7W, 30 μM DIF-1 or 250 nM DAPT)?
Answer: Its value is “markedly decreased”.

Question: And the “effect on cyclin D1 accumulation, co-treatment with lactacystin or ALLN” value (cyclin D1; CHO-CAB)?
Answer: Its value is “inhibited the accumulation of cyclin D1”.

Question: And the “level of total Aβ in conditioned media by western blot” value (secreted APP and Aβ)?
Answer: Its value is “reduced the level of total Aβ”.

Question: What about the “level of total secreted APP in conditioned media” value (secreted APP and Aβ) of the same compound?
Answer: Its value is “reduced the level of total secreted APP”.

Question: What about the “G0/G1 cell cycle block (percentage of cells)” value (CHO-7W cells) of the same compound?
Answer: Its value is 50.1%±1.1.

Question: What about the “reduction of secreted Aβ40” value (Aβ40; CHO-7W, 30 μM overnight) of the same compound?
Answer: The value was “about 48.5±0.91%”.

Question: What about the “reduction of secreted levels of Aβ40” value (Aβ40; conditioned media from either CHO-7W or CHO-CAB cells) of the same compound?
Answer: Its value is 44.2±3.4%.
